In series [1] the test system is bone marrow derived macrophages. The series is described as follows: AlamarBlue assay (metabolic activity) in macrophages. The series is classed as cell-based, mouse. Particulars: for cell (metabolic) activity, % of positive control: 1 μg/mL LPS 48 hours. The protocol:
Primary cultured macrophages. Bone marrow macrophages were isolated from C57BL/6 adult mice ([…]-56) as previously described (Marim et al., 2010). In summary, mice were killed by cervical dislocation and the femurs were removed by cutting through the tibia near the pelvic bone and below the knee. Any muscle connected to the bone was carefully removed. Ice cold sterile PBS was slowly flushed through the bone and the contents were collected in a sterile 15 mL polypropylene tube on ice. After centrifugation for 10 min at 200 g at 4° C., red blood cells were lysed by adding 3-10 mL ammonium chloride solution. After a 3-5 min recovery period, the suspension was centrifuged for 10 min at 200 g at 4° C. and the supernatant was removed. Cells were plated in a 10 cm dish with plain medium containing 10 ng/mL M-CSF and cultured for 7 days to allow differentiation. 50 000 cells were plated with 200 μL medium per well in a 96 well plate. AlamarBlue assay. Cells were seeded according to the protocols described above, after compounds and stimuli were added, the cells were washed once with HBSS (37° C.) and 100 μl of a 1:10 AlamarBlue (Thermo Fisher Scientific) dilution in plain medium was added. The conversion of resazurin to resorufin was measured by absorbance (absorbance wavelength of 570 nm and a reference wavelength of 600 nm) after 3 hours.
(In general: Alamar Blue is a resazurin reagent that responds to reducing activity.)

Series [2] relates to oligodendrocyte cell line OLN-93. The series is described as follows: AlamarBlue assay in OLN-93 cells. The series is classed as cell-based. Particulars: 2.5 μM C1, 48 hours, unstimulated. The protocol:
Cell culture of immortalized cell lines: microglia cell line BV2, and oligodendrocyte cell line OLN-93. The immortalized murine microglia cell line BV2 (Blasi et al., 1990) and the oligodendrocyte cell line OLN-93 (Richter-Landsberg and Heinrich, 1996) were incubated in T75 flasks with plain medium. The cells were split every 2 to 3 days at the dilution 1:10 before they reached confluence. To do so, the cells were washed twice with PBS, followed by up to 5 min of trypsination. The trypsination was stopped using plain medium. The cells were centrifuged at 300 g for 10 min at 4° C., the supernatant was discarded, and the cells were resuspended in new medium and seeded into a new flask.
AlamarBlue assay. Cells were seeded according to the protocols described above, after compounds and stimuli were added, the cells were washed once with HBSS (37° C.) and 100 μl of a 1:10 AlamarBlue (Thermo Fisher Scientific) dilution in plain medium was added. The conversion of resazurin to resorufin was measured by absorbance (absorbance wavelength of 570 nm and a reference wavelength of 600 nm) after 3 hours.
The inventors evaluated the metabolic activity, proliferation and cell death of primary cultured neonatal microglia, primary cultured neonatal astrocytes and the oligodendrocyte cell line OLN-93 under physiological conditions. […]

In series [3] the test system is iNOS. Nature of the series: NOS enzyme activity assay (Eurofins), iNOS. Type of series: biochemical. Particulars: C1: 1 μM up to 5 μM as printed; 30 min reaction. The protocol:
In mammalians NO is produced by the three isoforms of NOS: iNOS, eNOS, and nNOS. To evaluate the direct influence of cl on the different isoforms of NOS, an enzyme activity assay was conducted by Eurofins. C1 was mixed with the enzyme buffer, which included co-factors and substrates and by adding the enzyme the reaction was initiated. After 30 min the reaction was stopped, and NO concentration was measured. The results are normalised to positive control performed without any additional compounds and are presented as percentage in inhibition. […] To test the compounds effect on iNOS a concentration range from […] 5 μM were applied ([…], 1, 10, 100 nM, 1, and 5 μM), and for testing eNOS and nNOS 1 nM and 1 μM were applied.

Entries after “also recorded” stand apart in the source; their conditions may differ.

In the case of `COc1ccc(NC(=O)C(NC(=O)C2CCCN2C(=O)OCc2ccccc2)c2ccc(OC)cc2)cc1` (stereo not drawn) [C1], the “cell (metabolic) activity, % of positive control” value is reported as 78.47±31.61% in series [1] (0.025 μM C1), 69.31±36.50% in series [1] (0.25 μM C1) and 66.48±31.17% in series [1] (2.5 μM C1). Besides, the “metabolic activity of PolyIC stimulated macrophages” value is “reduction of metabolic activity; also recorded: deceased significantly” in series [1] (0.025 μM C1, 100 μg/mL PolyIC 24 hours) and “did not show a significant difference” in series [1] (higher concentrations of C1 (0.25, 2.5 μM)). In addition, the “metabolic activity of IFNγ stimulated macrophages” value in series [1] (0.25 μM and 2.5 μM C1, 100 ng/mL IFNγ 48 hours) is “significant decrease in metabolic activity; also recorded: decreased the metabolic of IFNγ (100 ng/ml) significantly compared to plain medium”. In series [1] (all tested concentrations of C1), the “metabolic activity of macrophages stimulated with LPS” value is “decreased the metabolic activity”. For the same molecule, the “metabolic activity of OLN-93 cells” value in series [2] is reported as “increased the metabolic activity in oligodendrocytes compared to DMSO (p=0.0431) but not compared to plain medium; also recorded: not affected”. For the same molecule, in series [3], the “enzymatic activity of iNOS” value was “does not interfere”.

These data come from patent US20240025849A1 (MAX DELBRÜCK-CENTRUM FÜR MOLEKULARE MEDIZIN IN DER …, priority 2020, published 2024).
